“And” between values parts separate entries of the source, which are not always exact repeats. Identical values can stand only once. Like-named read-outs stand apart in the source and are kept apart here.
What was measured:
[1] = Acute toxicity; assay type: in vivo; details: in vivo, mouse, 24 hours after administration
Method: (§1) The acute toxicity of the compounds of the invention was examined by the following method.
(§2) Male ddy-strain 5-week old mice and male Wistar-strain 8 week old rats, five per group, were used as experimental animals. Each of the compounds was dissolved in saline and administered perorally (p.o.) or intraperitoneally (i.p.), and the toxicity of the compound was assessed 24 hours after the administration.

[2] = system: mouse; assay: Acute toxicity; assay type: in vivo; details: p.o., 24 hours after administration
Method: as §1, §2

[3] = system: mice with nerve disorder induced by mercury poisoning; assay: T-shaped maze learning and memory of mice with mercury poisoning; assay type: in vivo, Male BalbC strain mice; details: 102 69.5, 116 76.9 mg/kg.ip/day; for running time: mean ± SE, after MMC; for Number of mice which ran to the safety area within 5 seconds: numerator: at least 8 of ten runs within 5 seconds, denominator: mice tested, after MMC 6 mg/kg/day
Method: Male BalbC strain mice, 7 weeks old, were first caused to learn a T-shaped maze three times in a week so that they run straight from a starting point to a safety area. Then, methylmercury chloride (MMC for short) was administered orally in a dose of 6 mg/kg/day for 6 days. A group of mice to which saline was administered in a dose of 0.1 ml/10 g/day was used as a control group. Beginning with the day next to the day of administering MMC, compounds Nos. 102 and 116 were intraperitoneally administered over 10 days in a dose of 69.5 mg/kg/day and 76.9 mg/kg/day, respectively, so as to make the mole numbers of the compounds equal. On the sixth day after administration of the drug (namely, on the 12th day after start of the experiment), learning of the T-shaped maze was resumed, and the running behaviors of the mice were observed. The number of mice which could be experimented in the T-shaped maze on the 10th and 11th days after the resumption (21st and 22nd days after the start of the experiment) was counted and expressed as a denominator. The number of mice which ran to the safety area within 5 seconds at least 8 times out of ten trial runnings was counted and expressed as a numerator. The decrease in the number of the test animals was due to death by MMC poisoning. The time (seconds) required for the animals to run to the safety area was measured, and the mean ± standard error (SE) was calculated.

[4] = system: rats having the lesioned nigral dopaminergic nerve cells; assay: Methamphetamine-induced rotational movement after 6-hydroxydopamine lesion and fetal dopamine cell transplantation; assay type: in vivo, female Wistar rats
Method: Nigral dopaminergic nerve cells at the left side of the brain of 4-week old female Wistar rats (body weight 100 g) were lesioned by injecting a very small quantity of 6-hydroxydopamine. […] Upon administration of methamphethamine (5 mg/kg, i.p.) to the rats having the lesioned nigral dopaminergic nerve cells, they began rotational movement toward the lesioned side.
After two weeks from the destruction by the administration of the drug, portions of the truncus corporis callosi containing dopamine cells (i. e., substantia nigra and the tagmentum at the abdomen side) were cut from the brain of a fetal rat of 14 to 17 days of age, cut finely, and treated with trypsin. Then, the extracted tissues were incubated at 37°C for 30 minutes, and the tissues were subjected to pipetting to form a suspension. Five microliters of the suspension was transplanted each into two sites of the caudate nucleus of the lesioned side (10 microliters in total, about 10⁵ cells).
Each of the compounds (I) in a dose of 100 mg/kg (i.p.) was administered every day over two weeks from the day of transplantation. The rotational movements induced by administration of methamphetamine were examined 2 weeks and 1 week before, and 2 weeks and 4 weeks after, the transplantation and the administration of the drug. The number of rotational movements within one minute was counted at intervals of 10 minutes after the administration of methamphetamine, and the total number of rotational movements counted six times was averaged to find a mean number of the rotational movements.

[5] = system: rats with crushed sciatic nerves; assay: Curative effect on rats with crushed sciatic nerves; assay type: in vivo, male Wistar rats; details: i.p. once a day, Compound 118 30 mg/kg, Mecobalamin 0.5 mg/kg, mean ± S.E.; for Rate of recovery in muscle weight (%): soleus muscle, crushed side/normal side
Method: The curing effect of the compound (I) of the invention was tested on rats having crushed sciatic nerves as a model of peripheral nervous disorder using (1) a change in the action of the hind paw with the crushed sciatic nerves and (2) a change in the weight of the muscle as an index of the course of degeneration and regeneration of peripheral nerves.
In the experiment, male Wistar rats (6 weeks old), seven per group, were used. The sciatic nerves were crushed by a method similar to the method of Yamatsu et al. (see Kiyomi Yamatsu, Takenori Kaneko, Akifumi Kitahara and Isao Ohkawa, Journal of Japanese Pharmacological Society, 72, 259-268 (1976) and the method of Hasegawa et al. (see Kazuo Hasegawa, Naoji Mikuni and Yutaka Sakai, Journal of Japanese Pharmacological Society, 74 721-734 (1978). Specifically, under anesthesia with pentobarbital (40 mg/kg, i.p.), the left side sciatic nerve was exposed at the femur and that site of the exposed sciatic nerve which was 5 mm to the center from the branched part between the N. tibialis and the N. suralis was crushed using a modified artery, klomme, having a width of 2 mm and a gap of 0.1 mm. After the operation, the rats were assigned to the test groups at random.
Compound No. 118 was selected as the compound (I) of the invention and intraperitoneally administered to the rats once a day from the day of operation to the 22nd day. A group to which mecobalamin (made by Gedeon Richter Ltd.) was administered and a group to which 0.9 % saline was administered were used as controls. The following items were measured with the lapse of time (on the lst, 4th, 7th, 10th, 14th, 17th, 21st, and 23rd days after the crushing of the sciatic nerves).
By a method similar to the method of Hasegawa [Hasegawa, K., Experientia, 34, 750-751 (1978)], the distance between the first and fifth digits of the hind paw was measured.
The ratio of the measured distance to the normal distance was calculated and expressed in percentage (%).
It is known that the removal of a nerve or its disorder causes atrophy of the muscle which is under its control, and the atrophy is gradually cured by re-control by the nerve. For this reason, a change in the weight of the muscle, which is quantitative, was selected as an index. Twenty-three days after the operation, the soleus muscles of both sides of paws were extracted under anesthesia with pentobarbital, and their weights were measured. The ratio of the weight of the soleus muscle on the crushed side to that of normal side was calculated and expressed in percentage (%).

[6] = po, p.o., read-out: Estimated LD₅₀ (mg/kg, p.o.)
[7] = ip, i.p., read-out: Estimated LD₅₀ (mg/kg, i.p.)

CC(C)Nc1ncc2c(n1)N(C)C(=O)C2.Cl [Compound 102, 2-iso-Propylamino-5,6-dihydro-7-methyl-6-oxo(7H)pyrrolo[2,3-d]pyrimidine hydrochloride]
LD50 at 24 h [1, 6]: > 1000 mg/kg
Number of dead animals/number of animals tested ([2]; Dose 1000 mg/kg): 0/5
running time ([3]; 10th day after resumption): 2.1 ± 0.2 s
Number of mice which ran to the safety area within 5 seconds ([3]; 10th day after resumption): 6/6
running time ([3]; 11th day after resumption): 3.0 ± 0.6 s
Number of mice which ran to the safety area within 5 seconds ([3]; 11th day after resumption): 6/6

CC(C)Nc1ncc2c(n1)N(C)C(=O)C2.O=C(O)/C=C\C(=O)O [Compound 104, 2-iso-Propylamino-5,6-dihydro-7-methyl-6-oxo(7H)pyrrolo[2,3-d]pyrimidine maleate]
Number of rotational movements of rats and average values thereof (mean ±S.D.) ([4]; 2W after transplantation, 100 mg/kg (i.p.) every day over two weeks, maleate, 100 mg/kg): 2.0±3.2 and 3.1±3.8
Number of rotational movements of rats and average values thereof (mean ±S.D.) ([4]; -1W (before transplantation and drug administration, baseline), maleate): 10.8±3.8 and 10.4±5.2
Number of rotational movements of rats and average values thereof (mean ±S.D.) ([4]; -2W (before transplantation and drug administration, baseline), maleate): 12.3±3.7 and 10.1±6.1

CN(C)c1ncc2c(n1)N(C)C(=O)C2 [Compound 108]
LD50 at 24 h [1, 6]: > 1000 mg/kg
Number of dead animals/number of animals tested ([2]; Dose 1000 mg/kg): 2/5

CN1C(=O)Cc2cnc(N3CCCC3)nc21 [Compound 112]
LD50 at 24 h [1, 6]: > 1000 mg/kg
Number of dead animals/number of animals tested ([2]; Dose 1000 mg/kg): 0/5

CN1C(=O)Cc2cnc(N3CCCCC3)nc21 [Compound 118]
Rate of recovery of the interdigit distance (%) ([5]; 21st day): 79.8±2.5 %
Rate of recovery of the interdigit distance (%) ([5]; 23rd day): 87.9±3.3 %
Rate of recovery in muscle weight (%) ([5]; 23rd day): 59.6±2.8 %
LD50 at 24 h [1, 7]: 500 to 1000 mg/kg
LD50 at 24 h [1, 6]: > 1000 mg/kg
Number of dead animals/number of animals tested ([2]; Dose 1000 mg/kg): 0/5
Number of rotational movements of rats and average values thereof (mean ±S.D.) ([4]; 2W after transplantation, 100 mg/kg (i.p.) every day over two weeks): 1.9±3.2
Number of rotational movements of rats and average values thereof (mean ±S.D.) ([4]; -1W (before transplantation and drug administration, baseline)): 13.9±7.4 and 10.8±4.9
Number of rotational movements of rats and average values thereof (mean ±S.D.) ([4]; -2W (before transplantation and drug administration, baseline)): 9.1±5.6
Number of rotational movements of rats and average values thereof (mean ±S.D.) ([4]; column headed 3W, footnote: * Data at 2 W, 100 mg/kg (i.p.) every day over two weeks): *5.5±7.2

CN1C(=O)Cc2cnc(N3CCOCC3)nc21 [Compound 122]
LD50 at 24 h [1, 6]: > 1000 mg/kg
Number of dead animals/number of animals tested ([2]; Dose 1000 mg/kg): 1/5

CN1C(=O)Cc2cnc(N3CCSCC3)nc21 [Compound 126]
LD50 at 24 h [1, 6]: > 1000 mg/kg
Number of dead animals/number of animals tested ([2]; Dose 1000 mg/kg): 0/5

CCN(CC)C(=O)N1CCN(c2ncc3c(n2)N(C)C(=O)C3)CC1 [Compound 132, 2-Diethylaminocarbonylpiperazino-5,6-dihydro-7-methyl-oxo(7H)pyrrolo[2,3-d]pyrimidine]
LD50 at 24 h [1, 6]: > 1000 mg/kg
Number of dead animals/number of animals tested ([2]; Dose 1000 mg/kg): 1/5

CN1CCN(c2ncc3c(n2)N(C)C(=O)C3)CC1 [Compound 138]
LD50 at 24 h [1, 7]: 250 to 500 mg/kg
LD50 at 24 h [1, 6]: > 1000 mg/kg
Number of dead animals/number of animals tested ([2]; Dose 1000 mg/kg): 0/5

CC1CCN(c2ncc3c(n2)N(C)C(=O)C3)CC1 [Compound 175]
LD50 at 24 h [1, 7]: 500 to 1000 mg/kg

CN1Cc2nc(N3CCCC3)ncc2C1=O [Compound 216]
LD50 at 24 h [1, 6]: > 550 mg/kg
Number of dead animals/number of animals tested ([2]; Dose 550 mg/kg): 0/5

CN1Cc2nc(N3CCCCC3)ncc2C1=O [Compound 218]
LD50 at 24 h [1, 6]: > 550 mg/kg
Number of dead animals/number of animals tested ([2]; Dose 550 mg/kg): 0/5

C/C1=C2/[N-][C@H]([C@H](CC(N)=O)[C@@]2(C)CCC(=O)NC[C@@H](C)OP(=O)([O-])O[C@H]2[C@@H](O)[C@@H](n3cnc4cc(C)c(C)cc43)O[C@@H]2CO)[C@]2(C)N=C(/C(C)=C3N=C(/C=C4N=C1[C@@H](CCC(N)=O)C\4(C)C)[C@@H](CCC(N)=O)[C@]\3(C)CC(N)=O)[C@@H](CCC(N)=O)[C@]2(C)CC(N)=O.[CH3-].[Co+3] [Mecobalamin, reference compound]
Rate of recovery of the interdigit distance (%) ([5]; 21st day): 79.1±2.6 %
Rate of recovery of the interdigit distance (%) ([5]; 23rd day): 88.3±4.0 %
Rate of recovery in muscle weight (%) ([5]; 23rd day): 55.0±3.5%

Source: EP0305184A1, “Pyrimidines or their pharmaceutically acceptable salts thereof” (MITSUI PHARMACEUTICALS, INC., priority 1987, dated 1989)
